From patent EP4120837B1, “INHIBITORS OF CYTOKININ OXIDASE DERIVED FROM 2-(3-PHENYLUREIDO)BENZAMIDE, USE THEREOF AND PREPARATIONS CONTAINING THESE DERIVATIVES” (Univerzita Palackého v Olomouci, priority 2020, dated 2021)
Read-outs that look alike come from different tables or passages of the source.

Target: T1, ZmCKX1 (Zea mays, UniProt Q9T0N8)
T1 construct: made in house; host or cells: Yarrowia lipolytica
Assay: ZmCKX1 inhibition, PMS/MTT assay
Type: biochemical, maize
Protocol: The IC50 (concentration of a substance that causes 50% inhibition of the enzyme activity) was measured by PMS/MTT assay [phenazine methosulphate/3-(4,5-dimethylthiazol-2-yl)-2,5-diphenyltetrazolium bromide]. The assay was performed in 96-well microtiter plates. Each well contained a reaction mixture with a final concentration of: 0.1 M KH2PO4, pH 7.4, 1 mM MTT, 0.2 mM PMS, tested substance in a concentration range of 0.1 nM - 1 µM and 10 µM N^6-isopentenyladenine (iP) as a substrate. To this reaction mixture 100 µL of medium containing the active enzyme ZmCKX1 was added. The enzyme was produced by the yeast Yarrowia lipolytica and isolated according to the protocol (Kopečný D. et al., 2005, […] 87:1011-1022). The plates were incubated for 30 min at 37 °C and the enzymatic reaction was stopped by the addition of 25 µL of 35% acetic acid. Then, the absorbance at 578 nm was measured on a spectrophotometer, and the absorbance of the sample without the substrate was substracted as a reference value. The IC50 value was determined from the concentration-dependent curves in GraphPad Prism software. The values shown in Table 1 are the average of at least two measurements each performed in three repetitions. […] The substance 3,5DCl-Ph-U is 1-(3,5-dichlorophenyl)-3-phenylurea, which we have been prepared to compare its inhibitory activity with the compounds presented in the present invention. Addition of the amide group to the unsubstituted phenyl ring of this substance gives the compound 2AD-3,5DC, which has 42-fold better inhibitory activity with the ZmCKX1 enzyme than 3,5DCl-Ph-U. F-INCYDE ((2-fluoro-9H-purin-6-yl)-(3-methoxyphenyl)amine), CPPU (1-(2-chloropyridin-4-yl)-3-phenylurea), and DCPPU (1-(2,6-dichloropyridin-4-yl)-3-phenylurea) are substances known in the prior art.

[1] = read-out: IC50 (µM) ZmCKX1, 10 µM iP as substrate, pH 7.4, 30 min at 37 °C, average of at least two measurements
[2] = 10 µM iP as substrate, pH 7.4, 30 min at 37 °C, average of at least two measurements, read-out: IC50 (µM) ZmCKX1

T1 sequence (Q9T0N8 19-534): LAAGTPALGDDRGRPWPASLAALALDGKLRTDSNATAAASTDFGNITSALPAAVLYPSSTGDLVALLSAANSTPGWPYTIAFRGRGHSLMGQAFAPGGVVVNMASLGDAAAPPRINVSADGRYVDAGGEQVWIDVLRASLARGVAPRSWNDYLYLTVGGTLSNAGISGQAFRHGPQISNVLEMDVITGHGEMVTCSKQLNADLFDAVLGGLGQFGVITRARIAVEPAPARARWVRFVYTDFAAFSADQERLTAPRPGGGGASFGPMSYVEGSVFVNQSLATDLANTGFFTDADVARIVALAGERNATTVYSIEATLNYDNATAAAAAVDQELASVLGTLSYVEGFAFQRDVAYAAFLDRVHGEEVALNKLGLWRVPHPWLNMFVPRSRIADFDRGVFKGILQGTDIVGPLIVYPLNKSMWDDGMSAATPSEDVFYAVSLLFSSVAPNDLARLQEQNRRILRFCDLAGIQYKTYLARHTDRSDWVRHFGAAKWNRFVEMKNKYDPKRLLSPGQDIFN

Row | SMILES | IC50 [2] | also measured
1 | NC(=O)c1ccc(Br)cc1NC(=O)Nc1cc(Cl)cc(Cl)c1 [compound 19, 4-Bromo-2-[3-(3,5-dichlorophenyl)ureido]benzamide] |  | IC50 [1]: 0.001 µM
2 | COc1ccc(C(=O)NCCN)c(NC(=O)Nc2cc(Cl)cc(Cl)c2)c1 [compound 56, 2-[3-(3,5-dichlorophenyl)ureido]-4-methoxy-N-(2-amino-ethyl)benzamide] | 0.013 µM | 
3 | CCCNC(=O)c1ccccc1NC(=O)Nc1cccc(F)c1 [compound 39, 2-[3-(3-fluorophenyl)ureido]-N-propylbenzamide] | 0.17 µM | 
4 | NC(=O)c1ccc(OC(F)(F)F)cc1NC(=O)Nc1cccc(Br)c1 [compound 27, 2-[3-(3-bromophenyl)ureido]-4-trifluoromethoxybenzamide] |  | IC50: 0.007 µM
5 | O=C(Nc1cccc(Cl)c1)Nc1cc(Br)ccc1C(=O)NCCCO [compound 52, 4-bromo-2-[3-(3-chlorophenyl)ureido]-N-(3-hydroxy-propyl)benzamide] |  | IC50 [1]: 0.08 µM
6 | O=C(Nc1cc(Cl)cc(Cl)c1)Nc1cc(Br)ccc1C(=O)NCCO [compound 48, 4-Bromo-2-[3-(3,5-dichlorophenyl)ureido]-N-(2-hydroxy-ethyl)benzamide] |  | IC50: 0.005 µM
7 | NCCNC(=O)c1ccc(Br)cc1NC(=O)Nc1cccc(Cl)c1 [compound 54, 4-bromo-2-[3-(3-chlorophenyl)ureido]-N-(2-amino-ethyl)benzamide] |  | IC50 [1]: 0.035 µM
8 | O=C(Nc1ccccc1)Nc1ccnc(Cl)c1 [CPPU, 1-(2-chloro-4-pyridyl)-3-phenylurea, reference compound] |  | IC50: 18 µM
9 | O=C(Nc1cccc(Cl)c1)Nc1ccccc1C(=O)NCCCO [compound 51, 2-[3-(3-chlorophenyl)ureido]-N-(3-hydroxy-propyl)benzamide] | 0.15 µM | 
10 | NC(=O)c1ccc(Cl)cc1NC(=O)Nc1cc(Cl)cc(Br)c1 [compound 17, 2-[3-(3-bromo-5-chlorophenyl)ureido]-4-chlorobenzamide] |  | IC50 [1]: 0.001 µM
11 | COc1cc(Cl)cc(NC(=O)Nc2cc(Br)ccc2C(N)=O)c1 [compound 20, 4-bromo-2-[3-(3-chloro-5-methoxyphenyl)ureido]benzamide] |  | IC50: 0.034 µM
12 | COc1ccc(C(N)=O)c(NC(=O)Nc2cccc(Cl)c2)c1 [compound 22, 2-[3-(3-chlorophenyl)ureido]-4-methoxybenzamide] | 0.035 µM | 
13 | O=C(Nc1ccccc1)Nc1cc(Cl)cc(Cl)c1 [3,5DCl-Ph-U, 1-(3,5-dichlorophenyl)-3-phenylurea, reference compound] | 0.84 µM | 
14 | CCNC(=O)c1ccc(Br)cc1NC(=O)Nc1cc(Cl)cc(Cl)c1 [compound 35, 4-Bromo-2-[3-(3,5-dichlorophenyl)ureido]-N-ethylbenzamide] |  | IC50: 0.003 µM
15 | NC(=O)c1ccccc1NC(=O)Nc1cc(Br)cc(Br)c1 [compound 7, 2-[3-(3,5-dibromophenyl)ureido]benzamide] |  | IC50: 0.047 µM
16 | NC(=O)c1ccccc1NC(=O)Nc1cc(Cl)cc(Br)c1 [compound 9, 2-[3-(3-bromo-5-chlorophenyl)ureido]benzamide] |  | IC50: 0.04 µM

Row | SMILES | IC50 [2] | also measured
17 | NNC(=O)c1ccc(Br)cc1NC(=O)Nc1cc(Cl)cc(Cl)c1 [compound 45, 1-(5-Bromo-2-hydrazinocarbonylphenyl)-3-(3,5-dichlorophenyl)-urea] |  | IC50: 0.02 µM
18 | NC(=O)c1ccc(OC(F)(F)F)cc1NC(=O)Nc1cccc(Cl)c1 [compound 26, 2-[3-(3-chlorophenyl)ureido]-4-trifluoromethoxybenzamide] | 0.009 µM | 
19 | CCNC(=O)c1ccc(OC)cc1NC(=O)Nc1cc(Cl)cc(Cl)c1 [compound 37, 2-[3-(3,5-dichlorophenyl)ureido]-4-methoxy-N-ethylbenzamide] | 0.002 µM | 
20 | NC(=O)c1ccc(Br)cc1NC(=O)Nc1cccc(Cl)c1 [compound 18, 4-bromo-2-[3-(3-chlorophenyl)ureido]benzamide] |  | IC50 [1]: 0.011 µM
21 | NC(=O)c1ccccc1NC(=O)Nc1cc(F)cc(F)c1 [compound 5, 2-[3-(3,5-difluorophenyl)ureido]benzamide] | 0.16 µM | 
22 | COc1ccc(C(N)=O)c(NC(=O)Nc2cccc(F)c2)c1 [compound 21, 2-[3-(3-fluorophenyl)ureido]-4-methoxybenzamide] | 0.058 µM | 
23 | COc1ccc(C(=O)NCCO)c(NC(=O)Nc2cc(Cl)cc(Cl)c2)c1 [compound 50, 2-[3-(3,5-dichlorophenyl)ureido]-4-methoxy-N-(2-hydroxyethyl)benzamide] | 0.003 µM | 
24 | COc1cc(Cl)cc(NC(=O)Nc2cc(F)ccc2C(N)=O)c1 [compound 14, 2-[3-(3-chloro-5-methoxyphenyl)ureido]-4-fluorobenzamide] | 0.028 µM | 
25 | CNC(=O)c1ccc(F)cc1NC(=O)Nc1cc(Cl)cc(Cl)c1 [compound 30, 2-[3-(3,5-dichlorophenyl)ureido]-4-fluoro-N-methylbenzamide] | 0.021 µM | 
26 | COc1ccc(C(=O)NCCO)c(NC(=O)Nc2cccc(F)c2)c1 [compound 49, 2-[3-(3-fluorophenyl)ureido]-4-methoxy-N-(2-hydroxy-ethyl)benzamide] | 0.04 µM | 
27 | CNC(=O)c1ccc(Br)cc1NC(=O)Nc1cc(Cl)cc(Cl)c1 [compound 32, 4-bromo-2-[3-(3,5-dichlorophenyl)ureido]-N-methylbenzamide] |  | IC50 [1]: 0.01 µM
28 | COc1ccc(C(N)=O)c(NC(=O)Nc2cccc(Br)c2)c1 [compound 23, 2-[3-(3-bromophenyl)ureido]-4-methoxybenzamide] |  | IC50: 0.033 µM
29 | NC(=O)c1ccc(OC(F)(F)F)cc1NC(=O)Nc1cc(Cl)cc(Cl)c1 [compound 28, 2-[3-(3,5-Dichlorophenyl)ureido]-4-trifluoromethoxybenzamide] |  | IC50: 0.001 µM
30 | COc1ccc(C(N)=O)c(NC(=O)Nc2cc(Cl)cc(Br)c2)c1 [compound 25, 2-[3-(3-bromo-5-chlorophenyl)ureido]-4-methoxybenzamide] |  | IC50: 0.001 µM
31 | CCNC(=O)c1ccc(OC(F)(F)F)cc1NC(=O)Nc1cc(F)cc(Cl)c1 [compound 38, 2-[3-(3-chloro-5-fluorophenyl)ureido]-4-trifluoromethoxy-N-ethylbenzamide] | 0.001 µM | 
32 | NC(=O)c1ccccc1NC(=O)Nc1cc(Cl)cc(OC(F)(F)F)c1 [compound 11, 2-[3-(3-Chloro-5-trifluoromethoxyphenyl)ureido]benzamide] |  | IC50: 0.12 µM

The next lines start with results.

Row | IC50 [2] | SMILES | also measured
33 | 0.062 µM | CCCNC(=O)c1ccccc1NC(=O)Nc1cc(F)cc(F)c1 [compound 40, 2-[3-(3,5-difluorophenyl)ureido]-N-propylbenzamide] | 
34 | 0.018 µM | COc1ccc(C(=O)NN)c(NC(=O)Nc2cc(Cl)cc(Cl)c2)c1 [compound 46, 1-(3,5-dichlorophenyl)-3-(2-hydrazinocarbonyl-5-methoxyphenyl)-urea] | 
35 | 0.21 µM | NC(=O)c1ccccc1NC(=O)Nc1cccc(OC(F)(F)F)c1 [compound 4] | 
36 | 0.038 µM | CCNC(=O)c1ccccc1NC(=O)Nc1cc(Cl)cc(Cl)c1 [compound 34, 2-[3-(3,5-dichlorophenyl)ureido]-N-ethylbenzamide] | 
37 | 0.45 µM | NC(=O)c1ccccc1NC(=O)Nc1cccc(F)c1 [compound 1, 2-[3-(3-fluorophenyl)ureido]benzamide] | 
38 | 0.03 µM | CNC(=O)c1ccccc1NC(=O)Nc1cc(Cl)cc(Cl)c1 [compound 29, 2-[3-(3,5-dichlorophenyl)ureido]-N-methylbenzamide] | 
39 | 0.32 µM | COc1cccc(NC(=O)Nc2ccccc2C(N)=O)c1 [compound 3] | 
40 | 1 µM | COc1cccc(Nc2nc(F)nc3[nH]cnc23)c1 [F-INCYDE, (2-fluoro-9H-purin-6-yl)-(3-methoxyphenyl)amine, reference compound] | 
41 | 0.022 µM | NC(=O)c1ccccc1NC(=O)Nc1cc(Cl)cc(Cl)c1 [compound 6, 2-[3-(3,5-Dichlorophenyl)ureido]benzamide] | better inhibitory activity with the ZmCKX1 enzyme than 3,5DCl-Ph-U (ratio versus 3,5DCl-Ph-U): 42 fold
42 | 0.002 µM | NC(=O)c1ccc(Cl)cc1NC(=O)Nc1cc(Cl)cc(Cl)c1 [compound 16, 4-Chloro-2-[3-(3,5-dichlorophenyl)ureido]benzamide] | 
43 | 0.11 µM | NC(=O)c1ccccc1NC(=O)Nc1cc(F)cc(Cl)c1 [compound 8, 2-[3-(3-Chloro-5-fluorophenyl)ureido]benzamide] | 
44 | 0.018 µM | NC(=O)c1ccc(F)cc1NC(=O)Nc1cc(Cl)cc(Cl)c1 [compound 13, 2-[3-(3,5-dichlorophenyl)ureido]-4-fluorobenzamide] | 
45 | 0.02 µM | COc1ccc(C(=O)NCCCO)c(NC(=O)Nc2cc(Cl)cc(Cl)c2)c1 [compound 53, 2-[3-(3,5-dichlorophenyl)ureido]-4-methoxy-N-(3-hydroxy-propyl)benzamide] | 
46 | 0.022 µM | O=C(Nc1cc(Cl)cc(Cl)c1)Nc1ccccc1C(=O)NCCO [compound 47, 2-[3-(3,5-dichlorophenyl)ureido]-N-(2-hydroxy-ethyl)benzamide] | 
